# Test results taken from ChEMBL document CHEMBL3243973, “Synthesis and antitussive activity of aminotetra- (and -hexa-) hydrodibenzofurans” (J Med Chem, 1977).
# System: Cavia porcellus
# Assay: Antitussive activity in Dunkin-Hartley guinea pig assessed as inhibition of electrically-stimulated vagus nerve-induced cough at 100 mg/kg, po administered compound prior to electrical stimulation of vagus nerve measured at 20 to 40 mins relative to control
# Type: functional
# Conditions: not given
row,SMILES,inhibition in vivo at 100 mg/kg [%]
1,Cc1ccc2c(c1)[C@]1(C)CCC(=O)[C@H](NC(=O)CCN3CCCCC3)[C@@H]1O2,46
2,CC(=O)N1CCN(CCC(=O)N[C@H]2C(=O)CC[C@@]3(C)c4cc(C)ccc4O[C@@H]23)CC1,33
3,CCN1CCN(CCC(=O)N[C@H]2C(=O)CC[C@@]3(C)c4cc(C)ccc4O[C@@H]23)CC1,8
4,Cc1ccc2c(c1)[C@]1(C)CCC(=O)[C@H](NC(=O)CCCN(C)C)[C@@H]1O2,67
5,Cc1ccc2c(c1)[C@]1(C)CCC(=O)[C@H](NC(=O)CCCN3CCN(C)CC3)[C@@H]1O2,72
6,Cc1ccc2c(c1)[C@]1(C)CCC(=O)[C@H](NC(=O)CCCCN(C)C)[C@@H]1O2.Cl,> 80
7,Cc1ccc2c(c1)[C@]1(C)CCC(=O)[C@H](NC(=O)CCCCCN(C)C)[C@@H]1O2,25
8,Cc1ccc2c(c1)[C@]1(C)CC/C(=N\O)[C@H](NC(=O)CCN3CCN(C)CC3)[C@@H]1O2,55
9,Cc1ccc2c(c1)[C@]1(C)CC/C(=N\NC(N)=O)[C@H](NC(=O)CCN3CCN(C)CC3)[C@@H]1O2,25
10,Cc1ccc2c(c1)[C@]1(C)CCC(O)[C@H](NC(=O)CCN3CCN(C)CC3)[C@@H]1O2 (stereo partly drawn),12
11,Cc1ccc2c(c1)[C@]1(C)CCC3(OCCO3)[C@H](NC(=O)CCN3CCN(C)CC3)[C@@H]1O2,11
12,Cc1ccc2c(c1)[C@]1(C)CCC3(SCCS3)[C@H](NC(=O)CCN3CCN(C)CC3)[C@@H]1O2,46
13,Cc1ccc2c(c1)[C@]1(C)CCC[C@H](NC(=O)CCN3CCN(C)CC3)[C@@H]1O2,46
14,Cc1ccc2c(c1)[C@]1(C)CCC(O)[C@H](NCCCN3CCN(C)CC3)[C@@H]1O2 (stereo partly drawn),62
15,Cc1ccc2c(c1)[C@]1(C)CCC(=O)[C@H](NC(=O)OCCN3CCN(C)CC3)[C@@H]1O2,33
16,Cc1ccc2c(c1)[C@]1(C)CCC(=O)[C@H](NC(=O)CCOCCN(C)C)[C@@H]1O2,37
17,CC(=O)N[C@H]1C(=O)CC[C@@]2(C)c3cc(C)ccc3O[C@@H]12,25
18,CC(=O)c1cc(C)cc(C2(C)C=C(NC(=O)CCN3CCN(C)CC3)C(=O)CC2)c1O (stereo not drawn),22
19,CC(=O)c1cc(C)cc2c1O[C@H]1[C@@H](NC(=O)CCN3CCN(C)CC3)C(=O)CC[C@@]21C,42
20,Cc1cc([N+](=O)[O-])c2c(c1)[C@]1(C)CCC(=O)[C@H](NC(=O)CCN3CCN(C)CC3)[C@@H]1O2,> 80
21,Cc1ccc2c(c1)[C@]1(C)CCC(O)=C(C(=O)NCCN3CCN(C)CC3)[C@@H]1O2,61
22,Cc1ccc2c(c1)[C@]1(C)CCC(=O)[C@H](N)[C@@H]1O2,33
23,Cc1ccc2c(c1)[C@]1(C)CCC(=O)[C@H](NC(=O)CN3CCN(C)CC3)[C@@H]1O2,43

row,SMILES,inhibition in vivo at 100 mg/kg [%]
1,Cc1ccc2c(c1)[C@]1(C)C=C(NC(=O)Cn3cccc3)C(=O)C[C@@H]1O2,42
2,Cc1ccc2c(c1)[C@]1(C)C=C(NC(=O)CN3CCCCC3)C(=O)C[C@@H]1O2,17
3,Cc1ccc2c(c1)[C@]1(C)C=C(NC(=O)CN(C)C)C(=O)C[C@@H]1O2,33
4,Cc1ccc2c(c1)[C@]1(C)C=C(NC(=O)CCN3CCN(C)CC3)C(=O)C[C@@H]1O2,25
5,Cc1ccc2c(c1)[C@]1(C)C=C(NC(=O)CCN(C)C)C(=O)C[C@@H]1O2,58
6,Cc1ccc2c(c1)[C@]1(C)C=C(NC(=O)CN3CCOCC3)C(=O)C[C@@H]1O2,31
7,Cc1ccc2c(c1)[C@]1(C)C=C(NC(=O)CN3CCOCC3)C(O)C[C@@H]1O2 (stereo partly drawn),29
8,Cc1ccc2c(c1)[C@]1(C)CCC(=O)[C@H](NC(=O)CN3CCCC3)[C@@H]1O2,17
9,CCN(CC(=O)N[C@H]1C(=O)CC[C@@]2(C)c3cc(C)ccc3O[C@@H]12)Cc1ccccc1,9
10,Cc1ccc2c(c1)[C@]1(C)CCC(=O)[C@H](NC(=O)CCN3CCOCC3)[C@@H]1O2,39
11,Cc1ccc2c(c1)[C@]1(C)CCC(=O)[C@H](NC(=O)CCN(C)C)[C@@H]1O2,79
12,Cc1ccc2c(c1)[C@]1(C)CCC(=O)[C@H](NC(=O)CCN3CCN(C)CC3)[C@@H]1O2.Cl,> 80
13,Cc1ccc2c(c1)[C@]1(C)CCC(=O)[C@H](NC(=O)CCN3CCCC3)[C@@H]1O2,44
14,CCOC(=O)N1CCN(CCC(=O)N[C@H]2C(=O)CC[C@@]3(C)c4cc(C)ccc4O[C@@H]23)CC1,33
15,Cc1ccc2c(c1)[C@]1(C)CCC(=O)[C@H](NC(=O)CCN3CCN(c4ccccc4)CC3)[C@@H]1O2,54
16,Cc1ccc2c(c1)[C@]1(C)CCC(=O)[C@H](NC(=O)CCN3CCN(CCO)CC3)[C@@H]1O2,17
17,Cc1ccc2c(c1)[C@]1(C)CCC(=O)[C@H](NC(=O)CCN3CCN(Cc4ccccc4)CC3)[C@@H]1O2,33
18,Cc1ccc2c(c1)[C@]1(C)CCC(=O)[C@H](NC(=O)CCN(C)CCN(C)C)[C@@H]1O2,50
19,CCN(CC)CCC(=O)N[C@H]1C(=O)CC[C@@]2(C)c3cc(C)ccc3O[C@@H]12,33
20,Cc1ccc2c(c1)[C@]1(C)CCC(=O)[C@H](NC(=O)CCN3CCNCC3)[C@@H]1O2,75
21,Cc1ccc2c(c1)[C@]1(C)C=C(C(=O)NCCN3CCN(C)CC3)C(=O)C[C@@H]1O2,62.5
22,Cc1ccc2c(c1)[C@]1(C)CC(NC(=O)CCN3CCN(C)CC3)C(=O)C[C@@H]1O2 (stereo partly drawn),12.5
23,COc1ccc2c3c1O[C@H]1[C@@H](O)C=C[C@H]4[C@@H](C2)N(C)CC[C@@]341 [CODEINE],> 80

# System: Cavia porcellus
# Assay: Antitussive activity in po dosed Dunkin-Hartley guinea pig assessed as inhibition of electrically-stimulated vagus nerve-induced cough administered compound prior to electrical stimulation of vagus nerve measured at 20 to 40 mins
# Type: functional
# Conditions: not given
row,SMILES,ED50 [mg/kg]
1,Cc1ccc2c(c1)[C@]1(C)CCC(=O)[C@H](NC(=O)CCCCN(C)C)[C@@H]1O2.Cl,71
2,Cc1cc([N+](=O)[O-])c2c(c1)[C@]1(C)CCC(=O)[C@H](NC(=O)CCN3CCN(C)CC3)[C@@H]1O2,34
3,Cc1ccc2c(c1)[C@]1(C)CCC(=O)[C@H](NC(=O)CCN3CCN(C)CC3)[C@@H]1O2.Cl,32.5
4,COc1ccc2c3c1O[C@H]1[C@@H](O)C=C[C@H]4[C@@H](C2)N(C)CC[C@@]341 [CODEINE],38.5

# System: Cavia porcellus
# Assay: Toxicity in Dunkin-Hartley guinea pig assessed as effect on central nervous system at 100 mg/kg, po
# Type: organism-based
# Design: dose 100 mg/kg, route oral
# Conditions: in vivo
row,SMILES,Activity
1,Cc1ccc2c(c1)[C@]1(C)CCC(=O)[C@H](NC(=O)CCN3CCN(C)CC3)[C@@H]1O2.Cl,Non-toxic

# System: Cavia porcellus
# Assay: Toxicity in Dunkin-Hartley guinea pig assessed as effect on cardiovascular system at 100 mg/kg, po
# Type: organism-based
# Design: dose 100 mg/kg, route oral
# Conditions: in vivo
row,SMILES,Activity
1,Cc1ccc2c(c1)[C@]1(C)CCC(=O)[C@H](NC(=O)CCN3CCN(C)CC3)[C@@H]1O2.Cl,Non-toxic

# System: Cavia porcellus
# Assay: Toxicity in Dunkin-Hartley guinea pig assessed as gastrointestinal effect at 100 mg/kg, po
# Type: organism-based
# Design: dose 100 mg/kg, route oral
# Conditions: in vivo
row,SMILES,Activity
1,Cc1ccc2c(c1)[C@]1(C)CCC(=O)[C@H](NC(=O)CCN3CCN(C)CC3)[C@@H]1O2.Cl,Non-toxic
